# Source: US20220117993A1, “Compounds Useful in HIV Therapy” (GlaxoSmithKline Intellectual Property (No. 2) Limited, priority 2018, published 2022)
# Legend:
# [1] = tested on: wild-type NL4-3 replication defective pseudovirus (PSV); test: microbe, parasite or virus in culture; format: cell-based; settings: NL43, 72 h, U373 cells expressing human CD4 and CXCR4 or CCR5, luciferase signal after 3 days, mean IC50, read-out: WT IC50
# [2] = tested on: PSV with methionine 184 to valine (M184V) substitution in the reverse transcriptase gene; test: microbe, parasite or virus in culture; format: cell-based, HIV; settings: Human immunodeficiency virus 1, 72 h, read-out: M184V IC50
# [3] = Rat pharmacokinetics, single intramuscular injection; format: in vivo, Male Wistar Han rats; settings: single IM dose 20 mg/kg, suspension 10 mg/mL; EFdA in blood, FIG. 2 and 3
# Experimental: The pharmacokinetics of Compounds 6 and 21 after a single intramuscular (IM) injection were evaluated in Male Wistar Han rats. The test compound was suspended in a 2% P407, 2% PEG3350, 3.5% Mannitol formulation at 10 mg/mL concentration. A single dose of 20 mg/kg of test compound was injected (2 mL/kg) IM into the right gastrocnemius muscle (n=3). Blood samples were collected via a lateral tail vein at the following time points: Day 1 [30 min, 1 h, 3 h, 5 h, 7 h], Days 2-5, Days 7, 10, 14, 17, 21, 24, 28, 31, 35, 38, 42, 45, 49, 52, 56, 59, 63, 66 and 70, etc. To evaluate test compound and EFdA concentrations, approximately 150 μL of blood was collected into a NaFL/Na2EDTA tube. Exactly 150 μL of blood was then pipetted into a new tube, mixed with 150 μL of 100 mM ammonium acetate pH4, (some of the prodrugs required mixing with 1.5 μL of FA as stabilizer), vortexed, immediately frozen on dry ice and stored at −80° C. until analysis. […] The supernatants were then analyzed by UPLC/MS-MS (Triple Quad™ 6500+). Pharmacokinetic parameters were evaluated using a non-compartmental model of the non-compartmental analysis tool, Pharsight Phoenix WinNonlin® 6.4 software.
SMILES,IC50 [1] [µM],IC50 [2] [µM],sustained exposure to EFdA out to [3]
"C#C[C@]1(CO)O[C@@H](n2cnc3c(N)nc(F)nc32)C[C@@H]1OC(=O)C(CCC)CCC [Example 5, (2R,3S,5R)-5-(6-amino-2-fluoro-9H-purin-9-yl)-2-ethynyl-2-(hydroxymethyl)tetrahydrofuran-3-yl 2-propylpentanoate]",0.0355,0.168,–
"C#C[C@]1(CO)O[C@@H](n2cnc3c(N)nc(F)nc32)C[C@@H]1OC(=O)CCCCCCCCCCCCCCCCCCC [Example 6, (2R,3S,5R)-5-(6-amino-2-fluoro-9H-purin-9-yl)-2-ethynyl-2-(hydroxymethyl)tetrahydrofuran-3-yl icosanoate]",0.635,3.28,–
"C#C[C@]1(CO)O[C@@H](n2cnc3c(NC(=O)OCC)nc(F)nc32)C[C@@H]1OC(=O)CCCCCCCCC [Example 8, (2R,3S,5R)-5-(6-((ethoxycarbonyl)amino)-2-fluoro-9H-purin-9-yl)-2-ethynyl-2-(hydroxymethyl)tetrahydrofuran-3-yl decanoate]",0.165,0.46,–
"C#C[C@]1(CO)O[C@@H](n2cnc3c(N)nc(F)nc32)C[C@@H]1OC(=O)CC(C)(C)c1c(C)cc(C)cc1OC(C)=O [Example 21, (2R,3S,5R)-5-(6-amino-2-fluoro-9H-purin-9-yl)-2-ethynyl-2-(hydroxymethyl)tetrahydrofuran-3-yl 3-(2-acetoxy-4,6-dimethylphenyl)-3-methylbutanoate]",–,–,does not afford a sustained release profile
"C#C[C@]1(CO)O[C@@H](n2cnc3c(N)nc(F)nc32)C[C@@H]1OC(=O)C(C)(C)CCC [Example 18, (2R,3S,5R)-5-(6-amino-2-fluoro-9H-purin-9-yl)-2-ethynyl-2-(hydroxymethyl)tetrahydrofuran-3-yl 2,2-dimethylpentanoate]",0.0464,0.168,–
"C#C[C@]1(CO)O[C@@H](n2cnc3c(N)nc(F)nc32)C[C@@H]1OC(=O)C(C)CCCCC (stereo partly drawn) [Example 11, (2R,3S,5R)-5-(6-amino-2-fluoro-9H-purin-9-yl)-2-ethynyl-2-(hydroxymethyl)tetrahydrofuran-3-yl 2-methylheptanoate]",0.0029,0.017,–
"C#C[C@]1(CO)O[C@@H](n2cnc3c(N)nc(F)nc32)C[C@@H]1OC(=O)C(C)(C)C [Example 13, (2R,3S,5R)-5-(6-amino-2-fluoro-9H-purin-9-yl)-2-ethynyl-2-(hydroxymethyl)tetrahydrofuran-3-yl pivalate]",0.263,1.28,–
"C#C[C@]1(CO)O[C@@H](n2cnc3c(N)nc(F)nc32)C[C@@H]1OC(=O)CCCCCCCCC [Example 3, (2R,3S,5R)-5-(6-amino-2-fluoro-9H-purin-9-yl)-2-ethynyl-2-(hydroxymethyl)tetrahydrofuran-3-yl decanoate]",0.0013,0.007,–
